According to ChEMBL document CHEMBL4732091, “Design, synthesis and biological evaluation of novel thiosemicarbazone-indole derivatives targeting prostate cancer cells” (Eur J Med Chem, 2021):
Active and inactive are the calls of the source. The calls are words filed in the database; no cut-off is given here.

Tests used:
ECa-109 cell line = experiment: Antiproliferative activity against human ECa-109 cell line cells assessed as inhibition of cell proliferation measured after 72 hrs by MTT assay; format: functional, cell-based; conditions: ECa-109, 72 h
DU-145 [1] = experiment: Antiproliferative activity against human DU-145 cell line cells assessed as inhibition of cell proliferation measured after 72 hrs by MTT assay; format: functional, cell-based; conditions: DU-145, 72 h
MCF7 = experiment: Antiproliferative activity against human MCF7 cell line cells assessed as inhibition of cell proliferation measured after 72 hrs by MTT assay; format: functional, cell-based; conditions: MCF7, 72 h
PC-3 [2] = experiment: Induction of cell cycle arrest in human PC-3 cells assessed as accumulation at G1/S phase at 125 nM measured after 48 hrs by propidium iodide staining based flowcytometry method (reference value: 19.23%); format: functional
DU-145 [3] = experiment: Induction of cell cycle arrest in human DU-145 cells assessed as accumulation at G1/S phase measured after 48 hrs by PI staining based Flowcytometry method; format: functional; conditions: dose 1.5-6 µM
DU-145 [4] = experiment: Cell cycle arrest in human DU-145 cells assessed as accumulation of cells in G1/S phase by measuring upregulation of p27 measured after 48 hrs by Western blot assay; format: functional, cell-based; conditions: dose 1.5-6 µM
PC-3 [5] = experiment: Induction of apoptosis in human PC-3 cells assessed as cell rounding at 25 to 100 nM measured after 72 hrs by Hoechst staining based fluorescence microscope method; format: functional; conditions: dose 25-100 nM
PC-3 [6] = experiment: Induction of apoptosis in human PC-3 cells assessed as early apoptotic cells at 25 nM measured after 72 hrs by Annexin V-FITC/propidium iodide staining based flow cytometry method (reference value: 0.452 %); format: functional
PC-3 [7] = experiment: Induction of apoptosis in human PC-3 cells assessed as necrotic cells at 25 nM measured after 72 hrs by Annexin V-FITC/propidium iodide staining based flow cytometry method (reference value: 1.2 %); format: functional
PC-3 [8] = experiment: Induction of apoptosis in human PC-3 cells assessed as viable cells at 50 nM measured after 72 hrs by Annexin V-FITC/propidium iodide staining based flow cytometry method (reference value: 97.2 %); format: functional; conditions: read-out: Activity
PC-3 [9] = experiment: Induction of apoptosis in human PC-3 cells assessed as necrotic cells at 50 nM measured after 72 hrs by Annexin V-FITC/propidium iodide staining based flow cytometry method (reference value: 1.2 %); format: functional
PC-3 [10] = experiment: Induction of apoptosis in human PC-3 cells assessed as viable cells at 100 nM measured after 72 hrs by Annexin V-FITC/propidium iodide staining based flow cytometry method (reference value: 97.2 %); format: functional; conditions: read-out: Activity
PC-3 [11] = experiment: Induction of apoptosis in human PC-3 cells assessed as late apoptotic cells at 100 nM measured after 72 hrs by Annexin V-FITC/propidium iodide staining based flow cytometry method (reference value: 1.01 %); format: functional
DU-145 [12] = experiment: Induction of apoptosis in human DU-145 cells assessed as viable cells at 0.5 uM measured after 72 hrs by Annexin V-FITC/propidium iodide staining based flow cytometry method (reference value: 96.3 %); format: functional; conditions: read-out: Activity
DU-145 [13] = experiment: Induction of apoptosis in human DU-145 cells assessed as early apoptotic cells at 0.5 uM measured after 72 hrs by Annexin V-FITC/propidium iodide staining based flow cytometry method (reference value: 0.835 %); format: functional
DU-145 [14] = experiment: Induction of apoptosis in human DU-145 cells assessed as late apoptotic cells at 1 uM measured after 72 hrs by Annexin V-FITC/propidium iodide staining based flow cytometry method (reference value: 1.77 %); format: functional
DU-145 [15] = experiment: Induction of apoptosis in human DU-145 cells assessed as necrotic cells at 1 uM measured after 72 hrs by Annexin V-FITC/propidium iodide staining based flow cytometry method (reference value: 1.13 %); format: functional
PC-3 [16] = experiment: Induction of apoptosis in human PC-3 cells assessed as reduction in Bcl-2 expression at 25 to 100 nM measured by Western blot assay; format: functional, cell-based; conditions: dose 25-100 nM
PC-3 [17] = experiment: Induction of apoptosis in human PC-3 cells assessed as increase in Bax expression at 25 to 100 nM measured by Western blot assay; format: functional, cell-based; conditions: dose 25-100 nM
DU-145 [18] = experiment: Induction of apoptosis in human DU-145 cells assessed as increase in Bax expression at 0.5 to 2 uM measured by Western blot assay; format: functional, cell-based; conditions: dose 0.5-2 µM
DU-145 [19] = experiment: Induction of ROS generation in human DU-145 cells assessed as increase in intracellular ROS level measured after 48 hrs by DCFH-DA staining based flowcytometry method; format: functional, cell-based; conditions: dose 0.5-2 µM
PC-3 [20] = experiment: Activation of MAPK signaling in human PC-3 cells assessed as increase in phosphorylated JNK (Thr 183/Tyr 185) at 125 to 500 nM measured by Western blot assay; format: cell-based; conditions: filed as activator, dose 125-500 nM
PC-3 [21] = experiment: Activation of MAPK signaling in human PC-3 cells assessed as increase in phosphorylated p38 (Thr 180/Tyr 182) at 125 to 500 nM measured by Western blot assay; format: cell-based; conditions: filed as activator, dose 125-500 nM
[22] = Toxicity in C57BL/6 mouse assessed as change in body weight at 2 mg/kg, IG measured after 2 weeks; format: organism-based; conditions: in vivo, po, 336 h
[23] = Toxicity in C57BL/6 mouse assessed as effect on liver at 2 mg/kg, IG measured after 2 weeks by hematoxylin and eosin staining based imaging analysis; format: organism-based; conditions: in vivo, po, 336 h
[24] = Toxicity in BALB/c-NU mouse assessed as changes in body weight at 12.5 to 25 mg/kg, IG qd for 21 days measured every 2 days; format: organism-based; conditions: in vivo, po, 504 h, dose 12.5-25 mg/kg, time 21 day
PC-3 [25] = experiment: Antiproliferative activity against human PC-3 cells assessed as inhibition of cell proliferation at 0.156 to 20 uM by MTT assay; format: functional, cell-based; conditions: dose 0.156-20 µM, time 24-72 hrs, TDE = time-dependent effect
PC-3 [26] = experiment: Induction of apoptosis in human PC-3 cells assessed as formation of apoptotic bodies at 25 to 100 nM measured after 72 hrs by Hoechst staining based fluorescence microscope method; format: functional, cell-based; conditions: dose 25-100 nM
PC-3 [27] = experiment: Induction of apoptosis in human PC-3 cells assessed as nuclear fragmentation at 25 to 100 nM measured after 72 hrs by Hoechst staining based fluorescence microscope method; format: functional, cell-based; conditions: dose 25-100 nM
DU-145 [28] = experiment: Induction of apoptosis in human DU-145 cells assessed as formation of apoptotic bodies at 0.5 to 2 uM measured after 72 hrs by Hoechst staining based fluorescence method; format: functional, cell-based; conditions: dose 0.5-2 µM
DU-145 [29] = experiment: Induction of apoptosis in human DU-145 cells assessed as nuclear fragmentation at 0.5 to 2 uM measured after 72 hrs by Hoechst staining based fluorescence method; format: functional, cell-based; conditions: dose 0.5-2 µM
PC-3 [30] = experiment: Induction of ROS generation in human PC-3 cells assessed as intracellular ROS level at 250 nM measured after 48 hrs by DCFH-DA staining based flowcytometry method (reference value: 55.2 %); format: functional
PC-3 [31] = experiment: Induction of ROS generation in human PC-3 cells assessed as intracellular ROS level at 500 nM measured after 48 hrs by DCFH-DA staining based flowcytometry method (reference value: 55.2 %); format: functional
DU-145 [32] = experiment: Induction of ROS generation in human DU-145 cells assessed as intracellular ROS level at 3 uM pretreated with NAC followed by compound treatment measured after 48 hrs by DCFH-DA staining based flowcytometry method (reference value: 75.1 %); format: functional

## Cc1ccc(/C=N/NC(=S)Nc2ccc(C(=O)NCCc3c(C)[nH]c4ccccc34)cc2)nc1
ECa-109 cell line
  IC50: 4.94 µM
DU-145 [1]
  IC50: 1.44 µM
MCF7
  IC50: 5.33 µM
PC-3 [2]
  Activity: 19.98%
DU-145 [3]
  Activity: Dose-dependent effect
DU-145 [4]
  Activity: Active
PC-3 [5]
  Activity: Active
PC-3 [6]
  Activity: 2.32%
PC-3 [7]
  Activity: 2.06%
PC-3 [8]
  viability at 0.05 µM: 64%
PC-3 [9]
  Activity: 8.91%
PC-3 [10]
  viability at 0.1 µM: 35.9%
PC-3 [11]
  Activity: 56.2%
DU-145 [12]
  viability at 0.5 µM: 90.2%
DU-145 [13]
  Activity: 0.41%
DU-145 [14]
  Activity: 22.5%
DU-145 [15]
  Activity: 4.81%
PC-3 [16]
  Activity: Active
PC-3 [17]
  Activity: Active
DU-145 [18]
  Activity: Active
DU-145 [19]
  Activity: Dose-dependent effect
PC-3 [20]
  Activity: Active
PC-3 [21]
  Activity: Active
[22]
  Activity: Non-Toxic
[23]
  Activity: Non-Toxic
[24]
  Activity: Non-Toxic
PC-3 [25]
  Activity: Tde
PC-3 [26]
  Activity: Active
PC-3 [27]
  Activity: Active
DU-145 [28]
  Activity: Active
DU-145 [29]
  Activity: Active
PC-3 [30]
  Activity: 87%
PC-3 [31]
  Activity: 98.9%
DU-145 [32]
  Activity: 60.1%
